Results as given in PubChem BioAssay AID588773 (The Scripps Research Institute Molecular Screening Center, 2011).
Active and inactive are the calls of the source.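 How the source made its calls: active means inhibition of plasma PAF acetylhydrolase at a set limit or more at 0.1 µM, with tenfold selectivity over all off-targets; inactive means inhibition below the limit or weaker selectivity.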

Key:
ABHD3 = assay: competitive ABPP of pPAFAH versus proteome off-targets – biochemical, gel-based, FP-Rh fluorescence, mouse, HTS hit compounds, selectivity assay for pPAFAH inhibitor project, late-stage follow-up (AID 588773); settings: at 10 µM
ABHD4 = ABHD4 (UniProt Q8VD66); assay: as above; settings: at 10 µM
ABHD6 = assay: as above; settings: for inhibition: stronger effect = higher value
FAAH = assay: as above; settings: stronger effect = higher value
LYPLA1 = assay: as above; settings: at 10 µM
LYPLA2 = assay: as above; settings: at 10 µM
[1] = biological target: Monoglyceride lipase (Mus musculus) (UniProt O35678); assay: as above; settings: MAGL; for inhibition: stronger effect = higher value
[2] = biological target: Platelet-activating factor acetylhydrolase (Mus musculus) (UniProt Q60963); assay: as above; settings: pPAFAH, stronger effect = higher value
[3] = as above; settings: MW 30 kDa protein, stronger effect = higher value

Platelet-activating factor acetylhydrolase (Mus musculus), sequence (Q60963 whole entry, looked up): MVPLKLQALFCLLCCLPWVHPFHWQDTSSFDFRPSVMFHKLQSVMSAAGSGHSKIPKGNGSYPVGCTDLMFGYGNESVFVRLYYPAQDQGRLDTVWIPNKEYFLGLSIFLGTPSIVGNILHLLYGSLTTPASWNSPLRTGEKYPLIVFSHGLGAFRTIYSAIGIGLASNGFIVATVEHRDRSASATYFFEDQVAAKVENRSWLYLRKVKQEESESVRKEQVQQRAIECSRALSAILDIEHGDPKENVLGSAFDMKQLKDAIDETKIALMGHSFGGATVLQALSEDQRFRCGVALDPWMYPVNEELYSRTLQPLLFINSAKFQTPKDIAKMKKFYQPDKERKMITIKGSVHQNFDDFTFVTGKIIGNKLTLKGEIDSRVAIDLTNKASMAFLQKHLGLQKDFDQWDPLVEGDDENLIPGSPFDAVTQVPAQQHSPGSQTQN
Monoglyceride lipase (Mus musculus), sequence (O35678 whole entry, looked up): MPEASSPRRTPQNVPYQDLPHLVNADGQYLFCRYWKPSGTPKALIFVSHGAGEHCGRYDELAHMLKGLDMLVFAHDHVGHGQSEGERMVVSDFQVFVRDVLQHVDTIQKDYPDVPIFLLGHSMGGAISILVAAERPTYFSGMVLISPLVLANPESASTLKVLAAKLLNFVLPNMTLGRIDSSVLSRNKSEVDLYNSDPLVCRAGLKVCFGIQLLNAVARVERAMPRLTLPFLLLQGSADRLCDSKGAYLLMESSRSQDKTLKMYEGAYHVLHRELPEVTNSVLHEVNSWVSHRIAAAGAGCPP
ABHD4, sequence (Q8VD66 whole entry, looked up): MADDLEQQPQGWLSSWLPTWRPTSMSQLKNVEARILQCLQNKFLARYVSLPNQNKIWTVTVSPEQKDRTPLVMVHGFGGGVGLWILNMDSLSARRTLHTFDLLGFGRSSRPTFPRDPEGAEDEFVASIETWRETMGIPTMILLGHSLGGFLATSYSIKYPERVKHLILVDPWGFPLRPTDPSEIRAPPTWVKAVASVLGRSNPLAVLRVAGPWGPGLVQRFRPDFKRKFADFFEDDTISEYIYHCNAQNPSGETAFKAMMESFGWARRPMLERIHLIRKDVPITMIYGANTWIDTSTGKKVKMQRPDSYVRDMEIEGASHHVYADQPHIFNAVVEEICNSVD

Row | SMILES | outcome (ABHD3) | outcome (ABHD4) | inhibition (ABHD6; at 10 µM) | inhibition (ABHD6; inhibition, at 1 µM) [%] | inhibition (FAAH; at 10 µM) | inhibition (FAAH; inhibition, at 1 µM) [%] | outcome (LYPLA1) | outcome (LYPLA2) | outcome ([1]; at 10 µM) | inhibition ([2]; at 10 µM) | inhibition ([2]; inhibition, at 1 µM) [%] | inhibition ([3]; at 0.1 µM) [%] | inhibition ([3]; at 1 µM) [%] | inhibition ([2]; inhibition, at 0.1 µM) [%] | inhibition (ABHD6; inhibition, at 0.1 µM) [%] | inhibition (FAAH; inhibition, at 0.1 µM) [%] | inhibition ([1]; at 10 µM) | inhibition ([1]; inhibition, at 1 µM) [%] | outcome (ABHD6; at 10 µM)
1 | O=C(Oc1ccc(Oc2ccccc2)cc1)N1CCC(O)CC1 | inactive | inactive | 39% (inactive) | 19 | 17% (inactive) | 2 | inactive | inactive | inactive | 92% (inactive) | 62 |  |  |  |  |  |  |  | 
2 | O=C(Oc1nsnc1N1CCOCC1)N1CCOCC1 | inactive | inactive | 39% (inactive) | 29 | 85% (inactive) | 80 | inactive | inactive | inactive | 86% (inactive) | 28 | 4 | 23 |  |  |  |  |  | 
3 | CCCCOC(=O)c1ccc(OC(=O)N2CCOCC2)cc1 | inactive | inactive | 22% (inactive) | 9 | 62% (inactive) | 30 | inactive | inactive | inactive | 90% (inactive) | 70 |  |  | 5 |  |  |  |  | 
4 | O=C(Oc1ccc(-c2ccccc2)cc1)N1CCOCC1 | inactive | inactive | 25% (inactive) | 16 | 83% (inactive) | 31 | inactive | inactive |  | 94% (inactive) | 78 | 21 | 27 | 32 | 12 | 23 | 20% (inactive) | 6 | 
5 | O=C(/C=C/c1cccs1)c1cc(Br)ccc1OC(=O)N1CCOCC1 | inactive | inactive |  |  | 61% (inactive) | 18 | inactive | inactive | inactive | 75% (inactive) | 56 |  |  |  |  |  |  |  | inactive
6 | O=C(Oc1ccc(-c2ccccc2)cc1)N1CCCCC1 | inactive | inactive | 53% (inactive) | 34 | 99% (inactive) | 56 | inactive | inactive |  | 95% (inactive) | 33 | 18 | 60 | 35 |  |  | 40% (inactive) | 36 | 
7 | O=C(CCCSc1ccc(Cl)cc1)Nc1cc(S(=O)(=O)N2CCOCC2)ccc1O | inactive | inactive | 26% (inactive) |  | 25% (inactive) |  | inactive | inactive |  | 88% (inactive) | 50 |  |  | 18 |  |  | 27% (inactive) |  | 
8 | O=C(Oc1ccc([N+](=O)[O-])cc1)N1CCC(N2CCCCC2)CC1 | inactive | inactive | 48% (inactive) | 22 | 60% (inactive) | 30 | inactive | inactive |  | 92% (inactive) | 66 |  | 22 |  |  |  | 45% (inactive) | 23 | 
9 | CN(C)C(=O)Oc1noc2cc(Cl)ccc12 | inactive | inactive | 65% (inactive) | 26 | 100% | 100 | inactive | inactive |  | 100% (inactive) | 92 |  | 6 | 47 | 21 | 100 | 33% (inactive) | 2 | 
